We go through three compounds from patent EP4414363A1, “INDOLYLACETIC DERIVATIVES FOR USE IN THE TREATMENT OF NEURODEGENERATIVE DISEASES” (Miuli Pharma S.r.l., priority 2023, dated 2024).

One series deals with iNOS. Description: Western blot of LPS-induced iNOS expression in microglia cells. In kind it is cell-based, murine. Particulars: BV2 microglial cells, LPS 100 ng/mL, compound 100nM, 24h. The method, then: (§1) Human neuroblastoma SH-SY5Y cells (Cell bank Line Collection ICLC) and immortalized murine microglial BV-2 cell line were grown as monolayers in polystyrene dishes (12 or 6 wells plate) in Dulbecco's modified Eagle's medium (DMEM) with 10% (v/v) fetal bovine serum (FBS), L glutamine (2 mM), 1% penicillin (50 IU/ml) and streptomycin (50 µg/ml). Cells were grown in a humidified atmosphere containing 95% air and 5% CO2, and the medium was changed every two days. All experiments were conducted in cultures containing cells between the 4th and 8th passages.
(§2) SH-SY5Y and BV-2 cells were plated with a confluence of 65.000 cell/mL. After 24 hours of cell seeding, medium was changed for 6h starvation in a medium containing 0% FBS. […]
(§3) Cells were exposed to compounds or vehicle and, after 24 hours, have been analyzed for Western Blotting experiments or MTT assay.
(§4) Western blot analysis was performed as previously described. Protein samples (50 µg) were analyzed on 8% subjected to SDS-polyacrylamide gel electrophoresis (SDS-PAGE) and electrotransferred onto Hybond ECL nitrocellulose paper (Amersham, Milan, Italy). […]
(§5) Immunoreactive bands were detected using ECL (Amersham). The optical density of the bands (normalized for β-actin) was determined by Chemi-Doc Imaging System (Bio-Rad, Segrate, Italy).
For orientation: A western blot detects proteins with antibodies after separation by electrophoresis.

The conditions of series [1]: from reference [15]; cited from earlier work.
Another series has as its system TNF-α. As to the kind of experiment: Western blot of LPS-induced TNF-α expression in microglia cells. Format: cell-based, murine. Particulars: BV2 microglial cells, LPS 100 ng/mL, compound 100nM, 24h. The method, then: as §1, §2, §3, §4, §5
The subject of the next series is COX2. As to the kind of experiment: Western blot of COX2 expression in LPS-exposed microglia cells. In kind it is cell-based, murine. Particulars: BV2 microglial cells, LPS 100 ng/mL, compound 100nM, 24h. The method, then:
as §1, §2, §3, §4, §5

The test system of series [2] is SOD1^G93A mice. As to the kind of experiment: Survival of ALS mice under prolonged treatment. Format: in vivo. Particulars: daily i.p. from 2 months of age, dose group not stated, vehicle 127.9 ± 1.65 days. The source says: (§6) B6SJL-TgN SOD1/G93A(+)1Gur mice expressing high copy number of mutant human SOD1 with a Gly93Ala substitution [SOD1^G93A] and B6SJL-TgN (SOD1)2Gur mice expressing wild-type human SOD1 (WT) were obtained from Jackson Laboratories (Bar Harbor, ME, USA). Transgenic animals have been crossed with background-matched B6SJL wild-type female and selective breeding maintained each transgene in the […] state. All transgenic mice were identified analyzing extracts from tail tips by staining for SOD1 as previously described.
(§7) Overall, 24 male and female mice housed under diurnal lighting conditions (12 h darkness/light) were used. The number of female and male mice was balanced among all the experimental groups.
(§8) The newly synthesized compound III, dissolved in distilled water, was intraperitoneally administered daily at a dose of […], beginning at 2 months of age until 4,5 months of age.
Disease end stage was defined by the inability of mice to right themselves within 20 s when placed on their sides.
Data were evaluated as means ± SEM. Statistically significant differences among means were determined by one-way ANOVA followed by Student-Newman-Keuls/Bonferroni post-hoc test for western blotting, and Behavioral test. The Kaplan-Meier plot was used to evaluate survival, grip, rotarod and paralysis onset. Student's t-test was used for two groups comparison. […]

In series [3] the test system is SOD1^G93A mice. Description: Paralysis onset in ALS mice. Particulars: daily i.p., dose group not stated, vehicle 33.69 ± 1.31 days. In kind it is in vivo.
From the text: as §6, §7, §8
(§9) Motor coordination and balance was assessed using a five-station mouse rotarod apparatus (Ugo Basile; Milan, Italy) as previously described. In each station, the rod was 6 cm in length and 3 cm in diameter. […] Mice had three trials on the rod, and the latencies to fall were measured once a week and then averaged. […] Body weight was measured immediately before each session of behavioral tests. […]

A short description of series [4]: Body weight during prolonged treatment. Format: in vivo, mice.
From the text: as §6, §7, §8, §9

The subject of series [5] is SOD1^G93A mice. As to the kind of experiment: Rotarod test (motor coordination and balance). Format: in vivo.
From the text: as §6, §7, §8
Motor coordination and balance was assessed using a five-station mouse rotarod apparatus (Ugo Basile; Milan, Italy) as previously described. In each station, the rod was 6 cm in length and 3 cm in diameter. Mice were trained to maintain balance at increasing speed up to a constant speed of 14 rpm for three consecutive trials. The test sessions were conducted by one rotarod trial administered once a week. In this session, the speed of rotation was increased from 4 to 14 rpm over 60 s. Mice had three trials on the rod, and the latencies to fall were measured once a week and then averaged. […] Weekly evaluation of hind limb paralysis was performed. […] Body weight was measured immediately before each session of behavioral tests.
To investigate whether the reduced neuroinflammatory response observed in vitro through the effect on TNF-α expression was accompanied by an amelioration of the motor performance of these mice, behavioral tests were weekly performed on WT and SOD1^G93A mice, starting from the second month after birth (P60), when i.p. administration of compound III started and when the mice were asymptomatic. […]
On the technique in general: The rotarod test checks motor coordination on a turning rod.

The subject of series [6] is SOD1^G93A mice. Description: Hind limb grip test. In kind it is in vivo.
From the text: as §6, §7, §8
Hind limb grip test was carried out by placing the mouse on a grid (45 cm long × 28 cm large) upside-down (30 cm above a foam pad). The test was performed once a week and the latency to fall off the grid was also measured up to a maximum of 60 s.
To investigate whether the reduced neuroinflammatory response observed in vitro through the effect on TNF-α expression was accompanied by an amelioration of the motor performance of these mice, behavioral tests were weekly performed on WT and SOD1^G93A mice, starting from the second month after birth (P60), when i.p. administration of compound III started and when the mice were asymptomatic. All animals were assigned to three experimental groups: SOD1^G93A+vehicle, SOD1 ^G93A +compound III at 1 mg/kg, and SOD1 ^G93A +compound III at 10 mg/kg, and then weighed, subjected to rotarod test, grip test and observed to detect the disease onset.

In the case of `COc1ccc2c(c1)c(CC(=O)O)c(C)n2C1CCN(C)CC1` [Compound II, 2-(5-methoxy-2-methyl-1-(1-methylpiperidin-4-yl)-1H-indol-3-yl)acetic acid], the “iNOS induction elicited by LPS” value in the series on iNOS is “prevent iNOS induction”. The “gastric damage evaluated as the lengths of the lesions” value (shortened to “gastric damage evaluated”) in [1] was 0 mm.
On to `CCOC(=O)Cc1c(C)n(C2CCN(C)CC2)c2ccc(OC)cc12` [Compound III, Ethyl 2-(5-methoxy-2-methyl-1-(1-methylpiperidin-4-yl)-1H-indol-3-yl)acetate], for which the “overexpression of TNF-α induced by LPS exposure” value in the series on TNF-α is “prevent the overexpression of TNF-α”. In addition, in the series with COX2, the COX2 expression result was “not COX2”. The compound also yielded an average lifespan in the series with SOD1^G93A mice [2] of 146.2 ± 3 days. Further, the paralysis onset in the series with SOD1^G93A mice [3] was 42.47 ± 1.59 days. Further, the body weight entry is given as “remained stable over time” in [4] (SOD1^G93A mice treated for 8 weeks, vehicle group 10% reduction at 7 weeks) and “No differences were observed” in [4] (WT mice, compound versus vehicle). The “rotarod: time able to balance on the rotarod” value in the series on SOD1^G93A mice [5] (SOD1^G93A mice, at 8 weeks of treatment, vehicle 3.7±1 sec, maximum 60 s) was 21.4 ± 5 s. In addition, in the series on SOD1^G93A mice [5] (SOD1^G93A mice, day of treatment, vehicle around the 30th day), the “rotarod onset (50% of the animals started to fall off the rotarod)” value is approximately 45 days. Also, the rotarod performance result in the series on SOD1^G93A mice [5] (wild type mice) is given as “did not disrupt this performance”. The “onset of grip performance loss (50% of the animals started to lose their grip)” value in the series with SOD1^G93A mice [6] (G93A mice, day after treatment, vehicle around the 35th day) was approximately 45 days. For the same compound, the “grip performance (latency to fall off the grid)” value in the series with SOD1^G93A mice [6] (SOD1^G93A mice, at 6 weeks of treatment, vehicle 28.8 ± 4 sec, maximum 60 s) came out at 43.8 ± 4 s. The “grip performance (time remained on the grid)” value in the series with SOD1^G93A mice [6] (SOD1^G93A mice, at 8 weeks of treatment) amounted to 20 s. The “gastric damage evaluated” value in [1] is 3 ± 0.6 mm.
For `COc1ccc2c(c1)c(CC(=O)O)c(C)n2C(=O)c1ccc(Cl)cc1` [indomethacin, reference compound], the “gastric damage evaluated” value in [1] is listed as 50 ± 8 mm.
